These results are taken from US4897417A, “Prodrugs of 3,4-hydroxy benzoyloxypropanolamines” (E. I. Du Pont de Nemours & Co., priority 1988, dated 1990).

Molecules are shown by their SMILES.

For data set [1], the system named is isoproterenol-induced increase in heart rate. In words: Effect on systemic beta-blockade upon topical administration (isoproterenol-induced heart rate in anesthetized dogs). Conditions: for HR, ISO only: 0 min (dose), isoproterenol only, before treatment; for HR, ISO only / HR, baseline: 0.125% group; for HR: 0.125% topical, isoproterenol infusion 0.5 μg/kg/min; for HR, baseline: -30 min, before isoproterenol and before treatment; for systemic beta-blockade of isoproterenol-induced increase in heart rate / effect on the heart rate responses to isoproterenol: in words, 50 μL, 0.125% solution; for effect on the heart rate responses to isoproterenol: topical; for drop in heart rate: within 60 minutes, 0.125% concentration. It is filed as in vivo, Mongrel dogs. The protocol: Mongrel dogs were anesthetized and control readings were made at -45 and -30 minutes. Following the -30 minute reading, an infusion of isoproterenol (0.5 μg/kg/min) was begun and maintained during the course of the experiment. Two readings of pretreatment isoproterenol responses were made at […] and at zero minutes. At zero minutes, a 50 μL sample of test compound was administered topically. This dose was repeated at 50, 60 and 90 minutes and the animal was monitored for heart rate for 180 minutes following the first application. Heart rate was obtained directly from the strip chart recording.

For data set [2] the test system is unchanged. The data set is described as above. It is filed as in vivo, Mongrel dogs. Conditions: 120 min (dose) post-treatment, 0.125% topical, isoproterenol infusion 0.5 μg/kg/min.
Data set [3] is described as follows: Ocular bioavailability in rabbits (aqueous humor levels after topical corneal dosing). It is filed as in vivo, New Zealand White Rabbits. The conditions noted are these: for area under the AH concentration time curve (AUC0-240'): 50 μL of 0.25% Timolol or 0.5% compound 8d; for absorption in the eye: topical. The protocol:
The ocular bioavailability of Timolol and compound 8d (dipivaloyl ester prodrug of compound 9d) was evaluated in New Zealand White Rabbits. Fifty μL of a solution of 0.25% Timolol or 0.5% compound 8d (both in the same vehicle) were administered onto the cornea of both eyes of 48 rabbits (24 rabbits/compound). At 5, 15, 30, 60, 120, 180, 240, and 360 minutes after dosing, 3 rabbits (6 eyes) per compound were killed. Aqueous humor (AH), was quickly removed from the eyes, weighed and processed to determine tissue levels of Timolol or compound 8d and compound 9d.

Consider `Cc1cc(OC(=O)C(C)(C)C)c(OC(=O)C(C)(C)C)cc1C(=O)OCC(O)CNC(C)(C)CNC(N)=O` (stereo not drawn) [Compound 8c], for which the “HR, ISO only” value in data set [1] stood at 212 bpm. The HR stood at 212 bpm in data set [1] (15 min post-treatment); 210 bpm in data set [1] (30 min post-treatment); 210 bpm in data set [1] (45 min post-treatment); 210 bpm in data set [1] (60 min (dose) post-treatment); 210 bpm in data set [1] (90 min post-treatment); 212 bpm in data set [1] (150 min post-treatment). In addition, in data set [2], the HR worked out at 210 bpm. Also, the “HR, baseline” value in data set [1] is recorded as 158 bpm. Moreover, the “systemic beta-blockade of isoproterenol-induced increase in heart rate” value in data set [1] is recorded as “no systemic beta-blockade”. Also, the “effect on the heart rate responses to isoproterenol” value (shortened to “effect on the heart rate responses”) in data set [1] was “no effect”. Moreover, the “drop in heart rate” value in data set [1] came to 7 bpm.
For the compound `Cc1cc(O)c(O)cc1C(=O)OCC(O)CNC(C)(C)CNC(=O)C1CCOC1` (stereo not drawn) [Compound 9d], the “stability in rabbit ocular tissues” value in data set [3] (in words) is on record as “stable in rabbit ocular tissues”.
Turning to `Cc1cc(OC(=O)C(C)(C)C)c(OC(=O)C(C)(C)C)cc1C(=O)OCC(O)CNC(C)(C)CNC(=O)C1CCOC1` (stereo not drawn) [Compound 8d], the “area under the AH concentration time curve (AUC0-240')” value in data set [3] (aqueous humor, rabbits) was 27,377 ng/100 μL/min. For the same compound, the “AUC of compound 8d in AH relative to AUC of Timolol in AH” value in data set [3] (aqueous humor, rabbits, after 0.25% Timolol or 0.5% compound 8d) is given as 3 ×. Also, in data set [3] (in words, rabbits), the “absorption in the eye” value is “rapidly absorbed in the eye”. Besides, in data set [3] (in words, rabbits, topical compound 8d), the “delivery of compound 9d to the internal structures of the eye” value is on record as “effectively delivers compound 9d to the internal structures of the eye”.
On to `CC(C)(C)NC[C@H](O)COc1nsnc1N1CCOCC1` [Timolol, reference compound], for which the “HR, ISO only” value in data set [1] turned out to be 213 bpm. In addition, the HR in data set [1] (15 min post-treatment) is on record as 198 bpm; in data set [1] (30 min post-treatment), 185 bpm; in data set [1] (45 min post-treatment) it was 174 bpm; in data set [1] (60 min (dose) post-treatment), 174 bpm; in data set [1] (90 min post-treatment) it was 179 bpm; in data set [1] (150 min post-treatment), 192 bpm. The HR in data set [2] worked out at 183 bpm. Further, in data set [1], the “HR, baseline” value came out at 142 bpm. In addition, the “effect on the heart rate responses” value in data set [1] is reported as “significant inhibitory effect”. Besides, the “drop in heart rate” value in data set [1] is recorded as 39 bpm. The “area under the AH concentration time curve (AUC0-240')” value in data set [3] (aqueous humor, rabbits) is given as 9,022 ng/100 μL/min. In addition, the “absorption in the eye” value in data set [3] (in words, rabbits) is given as “rapidly absorbed in the eye”.
Consider `CC(=O)NCC(C)(C)NCC(O)COC(=O)c1cc(OC(=O)C(C)(C)C)c(OC(=O)C(C)(C)C)cc1C` (stereo not drawn) [Compound 8a], for which the “HR, ISO only” value in data set [1] stood at 215 bpm. Moreover, the HR in data set [1] (15 min post-treatment) was 214 bpm; in data set [1] (30 min post-treatment) it was 213 bpm; in data set [1] (45 min post-treatment), 210 bpm; in data set [1] (60 min (dose) post-treatment), 208 bpm; in data set [1] (90 min post-treatment) it was 207 bpm; in data set [1] (150 min post-treatment), 202 bpm. Also, the HR in data set [2] is recorded as 203 bpm. The “HR, baseline” value in data set [1] turned out to be 152 bpm. For the same compound, in data set [1], the “systemic beta-blockade of isoproterenol-induced increase in heart rate” value is “no systemic beta-blockade”. In data set [1], the “effect on the heart rate responses” value is reported as “no effect”. Besides, the “drop in heart rate” value in data set [1] stood at 2 bpm.
